# Experimental data: patent US10028938B2, “Antiviral agents and uses thereof” (Griffith University, priority 2014, dated 2018)
# Read-outs that look alike come from different tables or passages of the source.
# Tests used:
# hPIV-3 HN [1] = molecular target: hPIV-3 HN (Human parainfluenza 3 virus, UniProt P08492); type: biochemical, hPIV-3 (strain C-243)
# hPIV-1 NI = hPIV-1 NI (Human parainfluenza 1 virus, UniProt P16071); experiment: biochemical
# Protocol: IC50 values for a number of compounds of the first aspect were determined by standard assay methods previously described in Guillon, P et al, Nature Communications (2014).
# hPIV-3 HN [2] = molecular target: T1, hPIV-3 HN (UniProt P08492); type: biochemical, hPIV-3 (strain C-243); parameters: rows headed: HI Mean IC50; hPIV-3 HN; 3 independent experiments; fold improvement in HI assay; other: versus 6; hPIV-3 HN HI IC50; other: text; other: text, unit given as M; conditions: read-out: hPIV-3 HN HI IC50
# T1 sequence (P08492 1-572): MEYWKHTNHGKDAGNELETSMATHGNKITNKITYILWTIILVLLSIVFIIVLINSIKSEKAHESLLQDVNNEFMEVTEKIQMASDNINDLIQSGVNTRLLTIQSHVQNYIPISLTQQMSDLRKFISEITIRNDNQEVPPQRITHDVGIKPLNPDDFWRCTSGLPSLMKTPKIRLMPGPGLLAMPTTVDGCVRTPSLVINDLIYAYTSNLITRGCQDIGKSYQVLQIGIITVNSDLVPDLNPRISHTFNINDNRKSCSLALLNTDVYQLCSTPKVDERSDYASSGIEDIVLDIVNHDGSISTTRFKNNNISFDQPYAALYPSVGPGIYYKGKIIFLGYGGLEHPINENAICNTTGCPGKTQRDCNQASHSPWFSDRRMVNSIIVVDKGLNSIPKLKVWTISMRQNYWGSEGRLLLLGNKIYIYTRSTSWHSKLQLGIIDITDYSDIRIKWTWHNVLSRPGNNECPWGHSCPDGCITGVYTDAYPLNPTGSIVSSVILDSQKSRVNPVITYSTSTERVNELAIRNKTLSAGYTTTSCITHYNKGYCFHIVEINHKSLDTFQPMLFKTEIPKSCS
# [3] = Table 5, read-out: hPIV-3 NI (IC50 values)
# Chain of hPIV-1 NI (P16071 whole entry): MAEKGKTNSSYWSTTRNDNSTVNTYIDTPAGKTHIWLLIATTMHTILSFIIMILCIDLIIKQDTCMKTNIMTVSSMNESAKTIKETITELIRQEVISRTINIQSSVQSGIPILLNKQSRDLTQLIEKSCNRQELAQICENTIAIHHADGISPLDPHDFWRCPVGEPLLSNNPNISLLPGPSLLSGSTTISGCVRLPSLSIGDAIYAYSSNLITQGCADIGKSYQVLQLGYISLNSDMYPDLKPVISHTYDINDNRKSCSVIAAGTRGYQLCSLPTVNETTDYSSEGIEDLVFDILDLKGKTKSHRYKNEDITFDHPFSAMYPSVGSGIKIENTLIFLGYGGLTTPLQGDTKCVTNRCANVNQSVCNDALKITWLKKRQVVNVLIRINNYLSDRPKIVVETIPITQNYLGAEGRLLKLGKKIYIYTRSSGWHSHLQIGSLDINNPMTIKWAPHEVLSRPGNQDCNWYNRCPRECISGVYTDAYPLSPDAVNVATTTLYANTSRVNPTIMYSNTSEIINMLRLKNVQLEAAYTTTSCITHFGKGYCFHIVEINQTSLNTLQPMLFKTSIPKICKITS
Structure (SMILES),IC50 (hPIV-3 HN [1]; [3]),IC50 (hPIV-1 NI),"IC50 (hPIV-3 HN [1]; text b135, read-out: IC50 values for hPIV-3 HN)",IC50 (hPIV-3 HN [2])
"CC(=O)N[C@H]1[C@H]([C@H](O)[C@H](O)CO)OC(C(=O)O)=C[C@@H]1n1cc(CC(C)C)nn1 [IE832-8, Sodium 5-acetamido-2,6-anhydro-3,4,5-trideoxy-4-(4-isobutyl-[1,2,3,]triazol-1-yl)-D-glycero-D-galacto-non-2-enonate]",54.4 µM,301 µM,,
"CC(=O)N[C@H]1[C@H]([C@H](O)C(O)CO)OC(C(=O)O)=C[C@@H]1n1nnc(-c2ccccc2)c1-c1ccccc1 (stereo partly drawn) [IE1172-102, Sodium 5-acetamido-2,6-anhydro-3,4,5-trideoxy-4-(4,5-diphenyl-[1,2,3,]triazol-1-yl)-D-glycero-D-galacto-non-2-enonate]",> 1000 µM,793 µM,,
"CC(=O)N[C@H]1[C@H]([C@H](O)C(O)CO)OC(C(=O)O)=C[C@@H]1n1cc(-c2ccccc2Br)nn1 (stereo partly drawn) [IE1257-84, Sodium 5-acetamido-2,6-anhydro-4-(4-(2-bromophenyl)-[1,2,3,]triazol-1-yl)-3,4,5-trideoxy-D-glycero-D-galacto-non-2-enonate]",2.19 µM,24.9 µM,,
"CC(=O)N[C@H]1[C@H]([C@H](O)[C@H](O)CO)OC(C(=O)O)=C[C@@H]1n1cc(-c2cccnc2)nn1 [IE832-27, Sodium 5-acetamido-2,6-anhydro-3,4,5-trideoxy-4-(4-(pyridin-3-yl)-[1,2,3,]triazol-1-yl)-D-glycero-D-galacto-non-2-enonate]",106 µM,302 µM,,
"CCCc1cn([C@H]2C=C(C(=O)O)O[C@@H]([C@H](O)[C@H](O)CO)[C@@H]2NC(C)=O)nn1 [IE832-26, Sodium 5-acetamido-2,6-anhydro-3,4,5-trideoxy-4-(4-propyl-[1,2,3,]triazol-1-yl)-D-glycero-D-galacto-non-2-enonate]",67.7 µM,95.5 µM,,
"COCc1cn(C2C(F)[C@](F)(C(=O)O)OC([C@H](O)[C@H](O)CO)[C@@H]2NC(=O)C(C)C)nn1 (stereo partly drawn) [IE1257-24, 3,4,5-Trideoxy-3-fluoro-5-isobutyramido-4-(4-methoxymethyl-[1,2,3,]triazol-1-yl)-D-erythro-β-L-gluco-non-2-ulopyranosonic fluoride]",8.49 µM,0.36 µM,,
"COCc1cnnn1[C@H]1C=C(C(=O)O)O[C@@H]([C@H](O)C(O)CO)[C@@H]1NC(C)=O (stereo partly drawn) [IE1172-87, Sodium 5-acetamido-2,6-anhydro-3,4,5-trideoxy-4-(5-methoxymethyl-[1,2,3,]triazol-1-yl)-D-glycero-D-galacto-non-2-enonate]",77.4 µM,92.8 µM,,
"CC(=O)N[C@H]1[C@H]([C@H](O)[C@H](O)CO)OC(C(=O)O)=C[C@@H]1n1cc(-c2ccc(CO)cc2)nn1 [IE832-12, Sodium 5-acetamido-2,6-anhydro-3,4,5-trideoxy-4-(4-(4-hydroxymethylphenyl)-[1,2,3,]triazol-1-yl)-D-glycero-D-galacto-non-2-enonate]",51.9 µM,215 µM,,
"CC(=O)N[C@H]1[C@H]([C@H](O)[C@H](O)CO)OC(C(=O)O)=C[C@@H]1n1cnnn1 [IE832-98, Sodium 5-acetamido-2,6-anhydro-3,4,5-trideoxy-4-(1H-tetrazol-1-yl)-D-glycero-D-galacto-non-2-enonate]",27.4 µM,7.44 µM,,
"CC(=O)N[C@H]1[C@H]([C@H](O)C(O)CO)OC(C(=O)O)=C[C@@H]1n1cc(-c2ccccc2C(F)(F)F)nn1 (stereo partly drawn) [IE1172-83, Sodium 5-acetamido-2,6-anhydro-3,4,5-trideoxy-4-(4-(2-(trifluoromethyl)phenyl)-[1,2,3,]triazol-1-yl)-D-glycero-D-galacto-non-2-enonate]",5.61 µM,73.6 µM,,
"CC(=O)N[C@H]1[C@H]([C@H](O)[C@H](O)CO)OC(C(=O)O)=C[C@@H]1n1cc2ccccc2c1C#N [IE889-80, Sodium 5-acetamido-2,6-anhydro-4-(1-cyano-2H-isoindol-2-yl)-3,4,5-trideoxy-D-glycero-D-galacto-non-2-enonate]",2.68 µM,16.9 µM,,
"CC(=O)N[C@H]1[C@H]([C@H](O)C(O)CO)OC(C(=O)O)=C[C@@H]1n1cc(-c2ccccc2Cl)nn1 (stereo partly drawn) [IE1172-78, Sodium 5-acetamido-2,6-anhydro-4-(4-(2-chlorophenyl)-[1,2,3,]triazol-1-yl)-3,4,5-trideoxy-D-glycero-D-galacto-non-2-enonate]",2.47 µM,75.2 µM,,
"CC(C)C(=O)N[C@H]1[C@H]([C@H](O)[C@H](O)CO)OC(C(=O)O)=C[C@@H]1n1cc2ccccc2c1C#N [IE889-99, Sodium 2,6-anhydro-4-(1-cyano-2H-isoindol-2-yl)-3,4,5-trideoxy-5-isobutyramido-D-glycero-D-galacto-non-2-enonate]",0.599 µM,6.22 µM,,
"COc1ccccc1-c1cn([C@H]2C=C(C(=O)O)O[C@@H]([C@H](O)[C@H](O)CO)[C@@H]2NC(C)=O)nn1 [IE832-37, Sodium 5-acetamido-2,6-anhydro-3,4,5-trideoxy-4-(4-(2-methoxyphenyl)-[1,2,3,]triazol-1-yl)-D-glycero-D-galacto-non-2-enonate]",2.4 µM,201 µM,,
"N#Cc1c2ccccc2cn1[C@H]1C=C(C(=O)O)O[C@@H]([C@H](O)[C@H](O)CO)[C@@H]1NC(=O)C(F)(F)F [IE927-99, Sodium 2,6-anhydro-4-(1-cyano-2H-isoindol-2-yl)-3,4,5-trideoxy-5-(2,2,2-trifluoroacetamido)-D-glycero-D-galacto-non-2-enonate]",0.268 µM,3.09 µM,0.27 µM,
"COc1ccc(-c2cn([C@H]3C=C(C(=O)O)O[C@@H]([C@H](O)[C@H](O)CO)[C@@H]3NC(C)=O)nn2)cc1 [IE832-31, Sodium 5-acetamido-2,6-anhydro-3,4,5-trideoxy-4-(4-(4-methoxyphenyl)-[1,2,3,]triazol-1-yl)-D-glycero-D-galacto-non-2-enonate]",22.9 µM,303 µM,,
"CC(C)C(=O)N[C@H]1[C@H]([C@H](O)[C@H](O)CO)OC(C(=O)O)=C[C@@H]1n1cnnn1 [IE889-42, Sodium 2,6-anhydro-3,4,5-trideoxy-5-isobutyramido-4-(H-tetrazol-1-yl)-D-glycero-D-galacto-non-2-enonate]",5.11 µM,0.159 µM,,
"COc1ccccc1-c1cn([C@H]2C=C(C(=O)O)O[C@@H]([C@H](O)[C@H](O)CO)[C@@H]2NC(=O)C(C)C)nn1 [IE889-34, Sodium 2,6-anhydro-3,4,5-trideoxy-5-isobutyramido-4-(4-(2-methoxyphenyl)-[1,2,3,]triazol-1-yl)-D-glycero-D-galacto-non-2-enonate]",3.23 µM,30.3 µM,,
"CC(=O)NC1C(O)C=C(C(=O)O)OC1C(O)C(O)CO (stereo not shown) [Compound 2, Neu5Ac2en, reference compound]",,,,1440 µM
"CC(=O)N[C@H]1[C@H]([C@H](O)C(O)CO)OC(C(=O)O)=C[C@@H]1n1nncc1-c1ccccc1 (stereo partly drawn) [IE1172-45, Sodium 5-acetamido-2,6-anhydro-3,4,5-trideoxy-4-(5-phenyl-[1,2,3,]triazol-1-yl)-D-glycero-D-galacto-non-2-enonate]",315 µM,> 1000 µM,,
"CC(C)Cc1cn([C@H]2C=C(C(=O)O)O[C@@H]([C@H](O)[C@H](O)CO)[C@@H]2NC(=O)C(C)C)nn1 [IE927-67, Sodium 2,6-anhydro-3,4,5-trideoxy-4-(4-isobutyl-[1,2,3,]triazol-1-yl)-5-isobutyramido-D-glycero-D-galacto-non-2-enonate]",114 µM,47.7 µM,,
"COc1cccc(-c2cn([C@H]3C=C(C(=O)O)O[C@@H]([C@H](O)[C@H](O)CO)[C@@H]3NC(C)=O)nn2)c1 [IE832-20, Sodium 5-acetamido-2,6-anhydro-3,4,5-trideoxy-4-(4-(3-methoxyphenyl)-[1,2,3,]triazol-1-yl)-D-glycero-D-galacto-non-2-enonate]",6.28 µM,193 µM,,
"CC(=O)N[C@H]1[C@H]([C@H](O)C(O)CO)OC(C(=O)O)=C[C@@H]1n1cc(-c2ccccc2C)nn1 (stereo partly drawn) [IE1172-82, Sodium 5-acetamido-2,6-anhydro-3,4,5-trideoxy-4-(4-(2-methylphenyl)-[1,2,3,]triazol-1-yl)-D-glycero-D-galacto-non-2-enonate]",3.95 µM,57.2 µM,,
